As a reminder, the pIC50 is the negative decadic logarithm of the IC50, by convention in mol/L. A low value points to a large IC50.

The experiment has as its target T1, PD-1-Ig binding to PD-L1-TVMV-His (PD-L1-His) (Homo sapiens, UniProt Q9NZQ7).
T1 construct: hPDL1 (19-239)-TVMV-His; TVMV protease cleavage site (C); made in house; host or cells: HEK293T cells
In words: PD-1/PD-L1 Homogenous Time-Resolved Fluorescence (HTRF) binding assay. Particulars: PD-1-Ig (20 nM)/PD-L1-His (10 nM). The source says:
The ability of the macrocyclic peptides of the present disclosure to bind to PD-L1 was investigated using a PD-1/PD-L1 Homogenous Time-Resolved Fluorescence (HTRF) binding assay.
Homogenous Time-Resolved Fluorescence (HTRF) Assays of Binding of Soluble PD-1 to Soluble PD-L1. Soluble PD-1 and soluble PD-L1 refers to proteins with carboxyl-end truncations that remove the transmembrane-spanning regions and are fused to heterologous sequences, specifically the Fc portion of the human immunoglobuling G sequence (Ig) or the hexahistidine epitope tag (His). All binding studies were performed in an HTRF assay buffer consisting of dPBS supplemented with 0.1% (w/v) bovine serum albumin and 0.05% (v/v) Tween-20. For the PD-1-Ig/PD-L1-His binding assay, inhibitors were pre-incubated with PD-L1-His (10 nM final) for 15 m in 4 μl of assay buffer, followed by addition of PD-1-Ig (20 nM final) in 1 μl of assay buffer and further incubation for 15 m. PD-L1 fusion proteins from either human, cynomologous macaques, mouse, or other species were used. HTRF detection was achieved using europium crypate-labeled anti-Ig monoclonal antibody (1 nM final) and allophycocyanin (APC) labeled anti-His monoclonal antibody (20 nM final). Antibodies were diluted in HTRF detection buffer and 5 μl was dispensed on top of binding reaction. The reaction was allowed to equilibrate for 30 minutes and signal (665 nm/620 nm ratio) was obtained using an EnVision fluorometer. Additional binding assays were established between PD-1-Ig/PD-L2-His (20 and 5 nM, respectively), CD80-His/PD-L1-Ig (100 and 10 nM, respectively) and CD80-His/CTLA4-Ig (10 and 5 nM, respectively). Binding/competition studies between biotinylated Compound No. 71 and human PD-L1-His were performed as follows. Macrocyclic peptide inhibitors were pre-incubated with PD-L1-His (10 nM final) for 60 minutes in 4 μl of assay buffer followed by addition of biotinylated Compound No. 71 (0.5 nM final) in 1 μl of assay buffer. Binding was allowed to equilibrate for 30 minutes followed by addition of europium crylated labeled Streptavidin (2.5 pM final) and APC-labeled anti-His (20 nM final) in 5 μl of HTRF buffer. The reaction was allowed to equilibrate for 30 m and signal (665 nm/620 nm ratio) was obtained using an EnVision fluorometer.
Recombinant Proteins. Carboxyl-truncated human PD-1 (amino acids 25-167) with a C-terminal human Ig epitope tag [hPD-1 (25-167)-3S-IG] and human PD-L1 (amino acids 18-239) with a C-terminal His epitope tag [hPD-L1(19-239)-tobacco vein mottling virus protease cleavage site (TVMV)-His] were expressed in HEK293T cells and purified sequentially by recombinant Protein A affinity chromatography and size exclusion chromatography. Human PD-L2-His (Sino Biologicals), CD80-His (Sino Biologicals), CTLA4-Ig (RnD Systems) were all obtained through commercial sources.
On the technique in general: TR-FRET usually uses a lanthanide donor and a delayed reading to cut background.

pIC50: −log10 of the molar value. Numbered stars: 1 amine (or outer) side, 2 acyl side, 3 side chain; on linkers, the order of the positions; unused ones are H or OH. Bridge positions count the residues as written; N and C are the ends. Square brackets hold non-standard residues; d marks the D form. Peptide text beside a SMILES is read from it. ξ: configuration not given here. Trp(1-CH2CONHSO2Me) = CS(=O)(=O)NC(=O)Cn1cc(C[C@H](N)C(=O)O)c2ccccc21; X1 = O=C(O)Cn1c(C(=O)O)c(C[C@H](N[*:1])C(=O)[*:2])c2ccccc21; X17 = O=C([C@H](Cc1cn(Cc2nnn[nH]2)c2ccccc12)N[*:1])[*:2]; Ala(4-isoquinolinyl) = N[C@@H](Cc1cncc2ccccc12)C(=O)O; X7 = O=C(O)Cc1nc(C[C@H](N[*:1])C(=O)[*:2])n2ccccc12; Trp(5-CN) = N#Cc1ccc2[nH]cc(C[C@H](N)C(=O)O)c2c1; X8 = O=C(O)Cn1cc(CC(N[*:1])C(=O)[*:2])c2cncnc21; X9 = O=C(O)Cn1cc(CC(N[*:1])C(=O)[*:2])c2cnccc21; X15 = O=C([C@H](Cc1n[nH]c2ccccc12)N[*:1])[*:2]; X16 = O=C([C@H](Cc1cccc2ccncc12)N[*:1])[*:2]; X4 = Cc1cccc2c(CC(N[*:1])C(=O)[*:2])n[nH]c12; Hyp = O=C(O)[C@@H]1C[C@@H](O)CN1; NMeNle = CCCC[C@H](NC)C(=O)O; NMeA = CN[C@@H](C)C(=O)O; Dab = NCC[C@H](N)C(=O)O; Dap = NC[C@H](N)C(=O)O; ξP = O=C(O)C1CCCN1; Sar = CNCC(=O)O Where only a bound is given, the exact number is not on record here.

T1 sequence (Q9NZQ7 with tags, fused parts or gaps): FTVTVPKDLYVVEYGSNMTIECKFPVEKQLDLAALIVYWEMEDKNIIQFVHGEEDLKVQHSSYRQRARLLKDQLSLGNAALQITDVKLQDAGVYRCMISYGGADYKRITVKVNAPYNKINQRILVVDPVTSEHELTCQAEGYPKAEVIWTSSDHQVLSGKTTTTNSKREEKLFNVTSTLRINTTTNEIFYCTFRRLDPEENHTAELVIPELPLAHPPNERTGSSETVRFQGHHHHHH

`CCCC[C@H]1C(=O)N(C)[C@@H](CCCC)C(=O)N[C@@H](CC(C)C)C(=O)N[C@H](C(=O)NCC(N)=O)CSCC(=O)N[C@@H](Cc2ccc(O)cc2)C(=O)N(C)[C@@H](C)C(=O)N[C@@H](CC(N)=O)C(=O)N2CCC[C@H]2C(=O)N[C@@H](CN)C(=O)N[C@@H](CC(C)C)C(=O)N2C[C@H](O)C[C@H]2C(=O)N[C@@H](Cc2c[nH]c3ccccc23)C(=O)N[C@@H](CCN)C(=O)N[C@@H](Cc2nc(CC(=O)O)c3ccccn23)C(=O)N1C` [Example 1017] ({CH2CO}-Y[NMeA]NP[Dap]L[Hyp]W[Dab][X7][NMeNle][NMeNle]LCG-NH2; thioether N-14) had a pIC50 (range class) of 8.00 to 9.00. Still for that read-out and setting: under `CCCC[C@H]1C(=O)N(C)[C@@H](CCCC)C(=O)N[C@@H](CC(C)C)C(=O)N[C@H](C(N)=O)CSCC(=O)N[C@@H](Cc2ccc(O)cc2)C(=O)N(C)[C@@H](C)C(=O)N[C@@H](CC(N)=O)C(=O)N(C)CC(=O)N[C@@H](CN)C(=O)N[C@@H](CC(C)C)C(=O)N2C[C@H](O)C[C@H]2C(=O)N[C@@H](Cc2c[nH]c3ccccc23)C(=O)N[C@@H](CCN)C(=O)N[C@@H](Cc2c(C(=O)O)n(CC(=O)O)c3ccccc23)C(=O)N1C` [Example 1018] ({CH2CO}-Y[NMeA]N[Sar][Dap]L[Hyp]W[Dab][X1][NMeNle][NMeNle]LC-NH2; thioether N-14) stands 7.00 to 8.00; under `CCCC[C@H]1C(=O)N(C)[C@@H](CCCC)C(=O)N[C@@H](CC(C)C)C(=O)N[C@H](C(=O)NCC(N)=O)CSCC(=O)N[C@@H](Cc2ccc(O)cc2)C(=O)N(C)[C@@H](C)C(=O)N[C@@H](CC(=O)O)C(=O)N2CCC[C@H]2C(=O)N[C@@H](Cc2cnc[nH]2)C(=O)N[C@@H](CCCCN)C(=O)N2C[C@H](O)C[C@H]2C(=O)N[C@@H](Cc2c[nH]c3ccccc23)C(=O)N[C@@H](CCCCN)C(=O)N[C@@H](Cc2cn(CC(=O)NS(C)(=O)=O)c3ccccc23)C(=O)N1C` [Example 1019] ({CH2CO}-Y[NMeA]DPHK[Hyp]WK[Trp(1-CH2CONHSO2Me)][NMeNle][NMeNle]LCG-NH2; thioether N-14), 8.00 to 9.00.

For `CCCC[C@H]1C(=O)N(C)[C@@H](CCCC)C(=O)N[C@@H](CC(C)C)C(=O)N[C@H](C(=O)NCC(N)=O)CSCC(=O)N[C@@H](Cc2ccc(O)cc2)C(=O)N(C)[C@@H](C)C(=O)N[C@@H](CC(N)=O)C(=O)N2CCC[C@H]2C(=O)N[C@@H](CN)C(=O)N[C@@H](CC(C)C)C(=O)N2C[C@H](O)C[C@H]2C(=O)N[C@@H](Cc2c[nH]c3ccccc23)C(=O)N[C@@H](CCN)C(=O)N[C@@H](Cc2cn(Cc3nnn[nH]3)c3ccccc23)C(=O)N1C` [Example 1020] ({CH2CO}-Y[NMeA]NP[Dap]L[Hyp]W[Dab][X17][NMeNle][NMeNle]LCG-NH2; thioether N-14), the pIC50 (range class) was under 6.00.

For the setting “range class”, `CCCC[C@H]1C(=O)N(C)[C@@H](CCCC)C(=O)N[C@@H](CCCNC(=N)N)C(=O)N[C@H](C(=O)NCC(N)=O)CSCC(=O)N[C@@H](Cc2ccc(O)cc2)C(=O)N(C)[C@@H](C)C(=O)N[C@@H](CC(N)=O)C(=O)N2CCC[C@H]2C(=O)N[C@@H](Cc2cnc[nH]2)C(=O)N[C@@H](CC(C)C)C(=O)N2C[C@H](O)C[C@H]2C(=O)N[C@@H](Cc2c[nH]c3ccccc23)C(=O)N[C@@H](CO)C(=O)N[C@@H](Cc2cncc3ccccc23)C(=O)N1C` [Example 1254] ({CH2CO}-Y[NMeA]NPHL[Hyp]WS[Ala(4-isoquinolinyl)][NMeNle][NMeNle]RCG-NH2; thioether N-14) showed a pIC50 of 7.00 to 8.00.

Compound `CCCC[C@H]1C(=O)N(C)[C@@H](CCCC)C(=O)N[C@@H](C)C(=O)N[C@H](C(=O)NCC(N)=O)CSCC(=O)N[C@@H](Cc2ccc(O)cc2)C(=O)N(C)[C@@H](C)C(=O)N[C@@H](CC(N)=O)C(=O)N2CCC[C@H]2C(=O)N[C@@H](Cc2cnc[nH]2)C(=O)N[C@@H](CCC(N)=O)C(=O)N2C[C@H](O)C[C@H]2C(=O)N[C@@H](Cc2c[nH]c3ccccc23)C(=O)N[C@@H](CO)C(=O)N[C@@H](Cc2cccc3ccncc23)C(=O)N1C` [Example 1271] ({CH2CO}-Y[NMeA]NPHQ[Hyp]WS[X16][NMeNle][NMeNle]ACG-NH2; thioether N-14) had a pIC50 (range class) of 7.00 to 8.00.

On to `CCCC[C@H]1C(=O)N(C)[C@@H](CCCC)C(=O)N[C@@H](C)C(=O)N[C@H](C(=O)NCC(N)=O)CSCC(=O)N[C@@H](Cc2ccc(O)cc2)C(=O)N(C)[C@@H](C)C(=O)N[C@@H](CC(N)=O)C(=O)N2CCCC2C(=O)N[C@@H](Cc2cnc[nH]2)C(=O)N[C@@H](CCC(N)=O)C(=O)N2C[C@H](O)C[C@H]2C(=O)N[C@@H](Cc2c[nH]c3ccccc23)C(=O)N[C@@H](CO)C(=O)N[C@@H](Cc2c[nH]c3ccc(C#N)cc23)C(=O)N1C` (some centres unmarked) [Example 1284] ({CH2CO}-Y[NMeA]N[ξP]HQ[Hyp]WS[Trp(5-CN)][NMeNle][NMeNle]ACG-NH2; thioether N-14), for which the pIC50 (range class) was 6.00 to 7.00. In the case of `CCCC[C@H]1C(=O)N(C)[C@@H](CCCC)C(=O)N[C@@H](C)C(=O)N[C@H](C(=O)NCC(N)=O)CSCC(=O)N[C@@H](Cc2ccc(O)cc2)C(=O)N(C)[C@@H](C)C(=O)N[C@@H](CC(N)=O)C(=O)N2CCCC2C(=O)N[C@@H](Cc2cnc[nH]2)C(=O)N[C@@H](CCC(N)=O)C(=O)N2C[C@H](O)C[C@H]2C(=O)N[C@@H](Cc2c[nH]c3ccccc23)C(=O)N[C@@H](CO)C(=O)N[C@@H](Cc2n[nH]c3ccccc23)C(=O)N1C` (some centres unmarked) [Example 1286] ({CH2CO}-Y[NMeA]N[ξP]HQ[Hyp]WS[X15][NMeNle][NMeNle]ACG-NH2; thioether N-14), the pIC50 (range class) was 6.00 to 7.00. `CCCC[C@H]1C(=O)N(C)[C@@H](CCCC)C(=O)N[C@@H](C)C(=O)N[C@H](C(=O)NCC(N)=O)CSCC(=O)N[C@@H](Cc2ccc(O)cc2)C(=O)N(C)[C@@H](C)C(=O)N[C@@H](CC(N)=O)C(=O)N2CCCC2C(=O)N[C@@H](Cc2cnc[nH]2)C(=O)N[C@@H](CCC(N)=O)C(=O)N2C[C@H](O)C[C@H]2C(=O)N[C@@H](Cc2c[nH]c3ccccc23)C(=O)N[C@@H](CO)C(=O)NC(Cc2n[nH]c3c(C)cccc23)C(=O)N1C` (some centres unmarked) [Example 1288] ({CH2CO}-Y[NMeA]N[ξP]HQ[Hyp]WS[X4][NMeNle][NMeNle]ACG-NH2; thioether N-14) gave a pIC50 (numeric value) of 5.15.

Take `CCCC[C@H]1C(=O)N(C)[C@@H](CCCC)C(=O)N[C@@H](CC(C)C)C(=O)N[C@H](C(=O)NCC(N)=O)CSCC(=O)N[C@@H](Cc2ccc(O)cc2)C(=O)N(C)[C@@H](C)C(=O)N[C@@H](CC(N)=O)C(=O)N2CCC[C@H]2C(=O)N[C@@H](CN)C(=O)N[C@@H](CC(C)C)C(=O)N2C[C@H](O)C[C@H]2C(=O)N[C@@H](Cc2c[nH]c3ccccc23)C(=O)N[C@@H](CCN)C(=O)NC(Cc2cn(CC(=O)O)c3ccncc23)C(=O)N1C` (some centres unmarked) [Example 10001] ({CH2CO}-Y[NMeA]NP[Dap]L[Hyp]W[Dab][X9][NMeNle][NMeNle]LCG-NH2; thioether N-14): the pIC50 (range class) is 7.00 to 8.00. Same read-out and setting: then `CCCC[C@H]1C(=O)N(C)[C@@H](CCCC)C(=O)N[C@@H](CC(C)C)C(=O)N[C@H](C(=O)NCC(N)=O)CSCC(=O)N[C@@H](Cc2ccc(O)cc2)C(=O)N(C)[C@@H](C)C(=O)N[C@@H](CC(N)=O)C(=O)N2CCC[C@H]2C(=O)N[C@@H](CN)C(=O)N[C@@H](CC(C)C)C(=O)N2C[C@H](O)C[C@H]2C(=O)N[C@@H](Cc2c[nH]c3ccccc23)C(=O)N[C@@H](CCN)C(=O)NC(Cc2cn(CC(=O)O)c3ncncc23)C(=O)N1C` (some centres unmarked) [Example 10002] ({CH2CO}-Y[NMeA]NP[Dap]L[Hyp]W[Dab][X8][NMeNle][NMeNle]LCG-NH2; thioether N-14), with 6.00 to 7.00.

The values are drawn from patent US10358463B2, “Immunomodulators” (BRISTOL-MYERS SQUIBB COMPANY, priority 2016, dated 2019).
